The test concerns HIV-1 (NL4-3 strain). Description: Assay for Inhibition of HIV Replication (VIKING), infected MT4-GFP cells. In kind it is cell-based. Conditions: infected cells at 48 h / 24 h. The method, then:
MT4-GFP cells (250,000 cells/ml) were bulk-infected with HIV-1 (NL4-3 strain) at low multiplicity of infection (MOI) in RPMI+10% FBS for 24 hours. Cells were then washed once in RPMI+10% FBS and resuspended RPMI+0% or +100% normal human serum (NHS). Test compounds were serial-diluted in DMSO on ECHO. The infected MT4-GFP cells were added to a 384-well poly-D-lysine coated black plate with clear bottom in which the diluted test compounds were placed. The cells were seeded at 8,000 cells per well and the final DMSO concentration was 0.4%. The infected cells (Green GFP cells) were quantified at both 24 and 48 hours post incubation using Acumen eX3. Viral reproductive ratio (R0) was determined using the number of infected cells at 48 hours divided by the number of infected cells at 24 hours. Percent viral growth inhibition was calculated by [1−(R−Rtripledrug)/(RDMSO−Rtripledrug)]*100.

Setting [1] is: Human immunodeficiency virus 1, NL43, 48 h, MT4-GFP cells infected with HIV-1 NL4-3, RPMI + 0% normal human serum, read-out: VIKING IP50 (nM) with 0% NHS.
Setting [2] is: MT4-GFP cells infected with HIV-1 NL4-3, RPMI + 100% normal human serum, read-out: VIKING IP50 (nM) with 100% NHS.
The mark [3] stands for this setting: MT4-GFP cells infected with HIV-1 NL4-3, RPMI + 0% normal human serum, read-out: VIKING IP50 (nM) with 0% NHS.
Setting [4] is: Human immunodeficiency virus 1, NL43, MT4-GFP cells infected with HIV-1 NL4-3, RPMI + 100% normal human serum, read-out: VIKING IP50 (nM) with 100% NHS.

SMILES strings stand for the structures. Read-outs that look alike come from different tables or passages of the source.

Regarding `COC1N(N(C)C)C(=O)c2c(O)c(=O)c(C(=O)NCc3ccc(F)cc3F)cn2C12CC2` (single isomer, unassigned) [Compound 1], the IC50 reads like this: under setting [1], 1.9 nM; under setting [2], above 8000 nM.
`COC1N(N(C)C)C(=O)c2c(O)c(=O)c(C(=O)NCc3ccc(F)cc3F)cn2C12CC2` (single isomer, unassigned) [Compound 2]: the IC50 runs as follows: under setting [3], 1.7 nM; under setting [2], 153 nM.
As to `O=C(NCc1ccc(F)cc1F)c1cn2c(c(O)c1=O)C(=O)N1CCCOC1C21CC1` (single isomer, unassigned) [Compound 3], the IC50 runs as follows: under setting [1], 0.6 nM; under setting [2], 3370 nM.
As for `O=C(NCc1ccc(F)cc1F)c1cn2c(c(O)c1=O)C(=O)N1CCCOC1C21CC1` (single isomer, unassigned) [Compound 4], the IC50 is, setting by setting: under setting [3], 0.5 nM; under setting [2], 285 nM.
Turning to `O=C(NCc1cccc(Cl)c1F)c1cn2c(c(O)c1=O)C(=O)N1CCCOC1C21CC1` (single isomer, unassigned) [Compound 5], the IC50 is 0.8 nM under setting [1] and above 8000 nM under setting [2].
On to `O=C(NCc1cccc(Cl)c1F)c1cn2c(c(O)c1=O)C(=O)N1CCCOC1C21CC1` (single isomer, unassigned) [Compound 6], for which the IC50 under setting [3] was determined as 0.6 nM and the IC50 under setting [2] came out at 505 nM.
As for `O=C(NCc1cccc(Cl)c1F)c1cn2c(c(O)c1=O)C(=O)N1CCOC1C21CC1` (single isomer, unassigned) [Compound 10], the IC50 runs as follows: under setting [1], 0.4 nM; under setting [2], 3900 nM.
`O=C(NCc1cccc(Cl)c1F)c1cn2c(c(O)c1=O)C(=O)N1CCOC1C21CC1` (single isomer, unassigned) [Compound 11]: the IC50 is, setting by setting: under setting [3], 0.4 nM; under setting [2], above 8000 nM.
For `O=C(NCc1cccc(Cl)c1F)c1cn2c(c(O)c1=O)C(=O)N1CCCCOC1C21CC1` (single isomer, unassigned) [Compound 12], the IC50 under setting [3] was determined as 0.5 nM and the IC50 under setting [2] was found to be 92.3 nM.
For the compound `O=C(NCc1cccc(Cl)c1F)c1cn2c(c(O)c1=O)C(=O)N1CCCCOC1C21CC1` (single isomer, unassigned) [Compound 13], the IC50 is, setting by setting: under setting [3], 1.3 nM; under setting [2], 4100 nM.
For `CN1CCCN2C(=O)c3c(O)c(=O)c(C(=O)NCc4cccc(Cl)c4F)cn3C3(CC3)C12` (single isomer, unassigned) [Compound 14], the IC50 under setting [1] was found to be 1 nM and the IC50 under setting [2] worked out at 2340 nM.
In the case of `CN1CCCN2C(=O)c3c(O)c(=O)c(C(=O)NCc4cccc(Cl)c4F)cn3C3(CC3)C12` (single isomer, unassigned) [Compound 15], the IC50 is, setting by setting: under setting [3], 0.6 nM; under setting [2], 71.5 nM.
For the compound `CN(C)N1CC2(COC2)n2cc(C(=O)NCc3ccc(F)cc3F)c(=O)c(O)c2C1=O` [Compound 7], the IC50 is 4 nM under setting [1] and 1280 nM under setting [4].
Regarding `CN(C)N1CC2(CCOCC2)n2cc(C(=O)NCc3ccc(F)cc3F)c(=O)c(O)c2C1=O` [Compound 8], the IC50 was 19 nM under setting [1] and 1510 nM under setting [4].
In the case of `COC1N(N(C)C)C(=O)c2c(O)c(=O)c(C(=O)NCc3ccc(F)cc3F)cn2C12COC2` (stereo not drawn) [Compound 9], the IC50 reads like this: under setting [1], 7 nM; under setting [4], 235 nM.

The record behind these values is US10150780B2, “Spirocyclic heterocycle compounds useful as HIV integrase inhibitors” (Merck Sharp & Dohme Corp., priority 2014, dated 2018).
